Data published in US11135308B2, “Maytansinoid derivatives with self-immolative peptide linkers and conjugates thereof” (priority 2017, dated 2021).

Assays:
COLO704 Cells = assay: In vitro cytotoxicity of predominant ADC metabolites, COLO704; format: cell-based
Method: (§1) Assays were performed in flat bottom 96-well plates in triplicate for each data point. Test articles were first diluted in complete cell culture media using 5-fold dilution series and 100 μL were added into each well. The final concentrations typically ranged from 3×10^−8 M to 8×10^−14 M. The target cells were then added to the test articles at 1,500 to 3,000 cells per well in 100 μL of complete culture media. The mixtures were incubated at 37° C. in a humidified 5% CO2 incubator for 5 days. Viability of the remaining cells was determined by the WST-8 (Tetrazolium salt-8; 2-(2-methoxy-4-nitrophenyl)-3-(4-nitrophenyl)-5-(2,4-disulfophenyl)-2H-tetrazolium) based colorimetric assay using the Cell Counting Kit-8 (Dojindo Molecular Technologies, Inc., Rockville, Md.). The WST-8 is reduced by dehydrogenases in live cells to give a yellow-colored formazan product that is soluble in tissue culture media. […] The WST-8 signals were then measured using a microplate plate reader at optical density of 450 nm. The surviving fraction was calculated by dividing the value of each treated sample by the average value of untreated controls, and plotted against the test article concentrations in a semi-log plot for each treatment. IC50 values were determined using nonlinear regression (curve fit) with GraphPad Prism v5 program (GraphPad Software, La Jolla, Calif.). […]

FRα-expressing KB cells = assay: In vitro metabolism study in KB cells; format: in vitro ADME; conditions: KB cells treated with saturating amount of 17c conjugate for 24 hours; UHPLC/HRMS
Method: FRα-expressing KB cells were treated with a saturating amount of 17c conjugate for 24 hours. Catabolite-containing media was incubated with 5 mM NEM to cap any free thiol present and then captured by pre-bound protein A-anti-maytansinoid antibody complex. The catabolites were released by acetone extraction, and analyzed by UHPLC/HRMS.

H1703 Cells = assay: In vitro cytotoxicity of predominant ADC metabolites, H1703; format: cell-based
Method: as §1

H1975 Cells = assay: In vitro cytotoxicity of predominant ADC metabolites, H1975; format: cell-based
Method: as §1

SMILES	IC50 (COLO704 Cells)	catabolites identified in cell culture media (FRα-expressing KB cells)	IC50 (H1703 Cells)	IC50 (H1975 Cells)
COc1cc2cc(c1Cl)N(C)C(=O)C[C@H](OC(=O)[C@H](C)N(C)C(=O)CCCCCSC)[C@]1(C)O[C@H]1[C@H](C)[C@@H]1C[C@@](O)(NC(=O)O1)[C@H](OC)/C=C/C=C(\C)C2 [metabolite 25a, DM-CO—(CH2)5-SMe]	3.04 pM	major effluxed catabolites	2.27 pM	–
COc1cc2cc(c1Cl)N(C)C(=O)C[C@H](OC(=O)[C@H](C)N(C)C(=O)CCCSC)[C@]1(C)O[C@H]1[C@H](C)[C@@H]1C[C@@](O)(NC(=O)O1)[C@H](OC)/C=C/C=C(\C)C2 [metabolite 25b, DM-CO—(CH2)3-SMe]	6.88 pM	–	5.92 pM	5.6 pM
